From patent publication US20240279710A1, “FLUORESCENT PROBES” (TOHOKU TECHNO ARCH CO., LTD., priority 2021, published 2024)

Assays:
SH-SY5Y cells = test: Live cell imaging of calpain activity in SH-SY5Y cells; format: cell-based; details: 5 μM probe, 10 minutes incubation, FIG. 12
Method: Whether or not the improvement in enzymatic reactivity between the compound of the present invention and a calpain confirmed by the above-mentioned experiment remained the same even in a cell was verified. Calpain activity imaging in SH-SY5Y cells was performed on each of Compounds 16 and 19. Specifically, the SH-SY5Y cells (American Type Culture Collection, VA, USA) were cultured in a mixed medium of Dulbecco's modified eagle medium and Ham's F-12 medium (DMEM/F-12; Thermo Fisher Scientific, Inc.) (containing 10% fetal bovine serum (FBS; Thermo Fisher Scientific, Inc., MA, USA) and 100 U/mL penicillin-100 μg/mL streptomycin (PS; Thermo Fisher Scientific, Inc.)) under the conditions of 37° C. and 5% CO2-95% air. 6×10^4 to 8×10^4 Cells/well of the cells were seeded in a multiwell plate (μ-Plate 96 Well; ibidi, Grafelfing, Germany) coated with poly-D-lysine (Thermo Fisher Scientific, Inc.) and laminin (BD Biosciences, CA, USA), and were preincubated in a culture solution. Immediately after the removal of the culture solution in the wells, 200 μL of an assay solution (a culture solution containing a 5 μM probe) was added thereto, and the cells were incubated under the conditions of 37° C. and 5% CO2-95% air. 10 Minutes after that, a bright field image and a fluorescence image were taken with a confocal microscope (LSM 710, Carl Zeiss AG, Oberkochen, Germany).
Calpain activity imaging in SH-SY5Y cells was performed on each of Compounds 20 to 23, Compound 38, and Compound 56 in the same manner as in Example 9. In the case of each of Compounds 20 to 23 and Compound 38, a bright field image and a fluorescence image were taken after 30 minutes of incubation of the cells, and in the case of Compound 56, such images were taken after 20 minutes of incubation thereof.

calpain = test: Rat NMDA injury model, ocular fundus imaging; format: in vivo; details: for staining of nerve cells with HMRG in ocular fundus: probe 18.3 μM, 20 minutes after administration; for number of HMRG-positive cells in ocular fundus: FIG. 16
Method: Black Brown-Norway rats were each subjected to general anesthesia with isoflurane. PBS or N-methyl-D-aspartate (NMDA) (10 mM, 2 μL) was administered into an eye of the rat. 6 Hours after that, the rat was anesthetized with a mixed liquid of ketamine and xylazine again, and Compound 19 (18.3 μM, 3 μL) was administered into the eye. Images of an ocular fundus were taken with F-10 (a confocal biomicroscope manufactured by Nidek Co., Ltd.) before the administration of Compound 19 and 20 minutes after the administration.

[1] = tested on: iPS cell-derived three-dimensional stereoscopic retinal tissue; test: Glutamic acid injury model of iPS cell-derived three-dimensional stereoscopic retinal tissue; format: cell-based, human
Method: Next, to confirm a reaction under conditions closer to those of a living organism, the iPS cell-derived three-dimensional stereoscopic retinal tissue on the 60th day of the differentiation induction was left at rest in a 24-well plate containing 1 mL of a reaction medium (obtained by adding CaCl2 (final concentration: 2.4 mM) and HEPES (final concentration: 20 mM) to a HBSS solution) in each well (n=5). The tissue was washed with 1 mL of the reaction medium twice, and glutamic acid was added thereto so that its final concentration became 0 μM, 300 μM, or 1 mM, followed by a reaction for 1 hour. Compound 19 was added to the resultant 1 hour after the addition of glutamic acid so that its final concentration became 0 μM, 0.25 μM, 1.2 μM, or 5.0 μM, and an image of the fluorescence of the mixture was taken with a fluorescence microscope (ZEISS Axio Vert.A1) (a RGB mode (lower stage) and a B/W mode (upper stage)) 1 hour thereafter. In all image-taking operations, an exposure time was fixed to 200 ms. The results of groups in which the final concentrations of glutamic acid are 0 μM, 300 μM, and 1 mM are shown in FIG. 25, FIG. 26, and FIG. 27, respectively. […] In addition, a graphical representation of an average calculated from fluorescence intensities in the images taken in the B/W mode (n=3) is shown in FIG. 28. […] In addition, results obtained by comparing and examining the fluorescence intensities of Compound 19 and Compound 16 are shown in FIG. 29.

[2] = biological target: T1, recombinant human cathepsin B (Homo sapiens, UniProt P07858); test: Fluorescence assay with cathepsin B; format: biochemical; details: 10 μM probe, 880 ng/mL cathepsin B, 50 mM TRIS pH 7.4, 37° C., excitation 475 nm, fluorescence 500-550 nm; FIG. 37
T1 construct: purchased R&D Systems 953-CY
Method: The fluorescence assay of Compound 19 with time was performed. Specifically, 880 ng/mL of recombinant human cathepsin B (953-CY; R&D Systems, MN, USA) was added to a 50 mM TRIS buffer (pH: 7.4, 2 mM EGTA, 2 mM DTE) containing 10 μM of the synthesized fluorescent probe to perform an enzyme reaction at 37° C. The same operations as those described above except that cathepsin B was not added were performed as a negative control. The results of the measurement of a change in fluorescence intensity with time by cathepsin B are shown in FIG. 37 (excitation wavelength: 475 nm, fluorescence wavelength: from 500 nm to 550 nm).

COCC(=O)N[C@@H](CC(C)C)C(=O)N[C@@H](CCSC)C(=O)Nc1ccc2c(c1)Oc1cc(N)ccc1C21OCc2ccccc21 (stereo partly shown) [Compound 19]
calpain activity imaging in SH-SY5Y cells (SH-SY5Y cells; confocal microscope): enabled the observation of calpain activity in the SH-SY5Y cells | clarity of live cell imaging compared to Compound 16 (SH-SY5Y cells): Clear imaging | staining of nerve cells with HMRG in ocular fundus (calpain; rats administered NMDA (10 mM, 2 μL), 3 μL into the eye 6 hours later): many of the nerve cells were clearly stained | number of HMRG-positive cells in ocular fundus (calpain; rats administered NMDA): significant increase | number of HMRG-positive cells in ocular fundus (calpain; rats administered PBS): extremely small | staining of nerve cells with HMRG in ocular fundus (calpain; rats administered PBS, 3 μL into the eye): substantially no nerve cells are stained | fluorescence images of retinal tissue ([1]; glutamic acid 300 μM or 1 mM, probe 0, 0.25, 1.2 or 5.0 μM, 1 hour, FIG. 26, FIG. 27): enhancement of fluorescence expression was observed in proportion to the concentration of Compound 19 | fluorescence intensity compared with Compound 16 ([1]; glutamic acid 1 mM, probe 0.25 μM, 1.2 μM, or 5.0 μM, FIG. 29): stronger fluorescence than that of Compound 16 | average fluorescence intensity of retinal tissue (B/W mode) ([1]; same glutamic acid concentration (0 μM, 300 μM, 1 mM), probe 0 to 5.0 μM, FIG. 28): fluorescence was strongly observed in a manner dependent on the concentration of Compound 19 | change in fluorescence intensity with time by cathepsin B [2]: functioned as a fluorescent probe for cathepsin B
